Assays:
Assay type in all cases: biochemical
myeloperoxidase (MPO) [1] = molecular target: T1, myeloperoxidase (MPO) (Homo sapiens, UniProt P05164); assay: MPO peroxidation assay (Amplex Red assay)
T1 sequence (P05164 49-745): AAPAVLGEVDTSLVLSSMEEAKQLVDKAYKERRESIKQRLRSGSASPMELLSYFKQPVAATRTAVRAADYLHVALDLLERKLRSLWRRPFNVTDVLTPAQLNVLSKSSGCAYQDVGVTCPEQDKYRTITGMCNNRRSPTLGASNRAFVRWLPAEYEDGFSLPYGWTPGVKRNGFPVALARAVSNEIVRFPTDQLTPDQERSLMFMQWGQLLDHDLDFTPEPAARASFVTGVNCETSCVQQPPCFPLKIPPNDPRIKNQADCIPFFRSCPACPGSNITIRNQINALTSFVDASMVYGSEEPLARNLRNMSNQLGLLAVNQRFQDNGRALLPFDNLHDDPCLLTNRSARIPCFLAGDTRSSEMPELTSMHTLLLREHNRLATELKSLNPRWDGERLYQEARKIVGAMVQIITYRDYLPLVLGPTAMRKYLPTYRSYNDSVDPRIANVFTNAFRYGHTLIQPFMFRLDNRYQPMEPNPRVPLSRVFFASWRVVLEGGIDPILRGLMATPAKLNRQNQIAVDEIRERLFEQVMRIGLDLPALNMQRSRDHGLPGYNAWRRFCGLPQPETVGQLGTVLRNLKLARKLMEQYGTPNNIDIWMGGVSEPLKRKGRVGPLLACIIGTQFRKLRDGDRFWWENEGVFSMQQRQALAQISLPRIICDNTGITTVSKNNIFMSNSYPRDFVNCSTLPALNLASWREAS
Method in brief: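 MPO (200 pM) with 40 nM H2O2 was preincubated 10 min at room temperature with inhibitor in 100 mM KPi pH 7.4. A mix of Amplex Red (200 μM) and H2O2 (10 mM) was then added and resorufin fluorescence read kinetically for 15 min. Slopes over 180–540 s gave % inhibition and IC50 via a four-parameter Hill fit.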

myeloperoxidase (MPO) [2] = molecular target: T1, myeloperoxidase (MPO); assay: MPO chlorination assay (APF assay)
Description: [formula] where A=minimal Y value (activity level of inhibited sample), B=maximal Y value (activity level of uninhibited sample), C=Log IC50, D=Hill Slope, x=concentration of inhibitor. MPO Chlorination Assay (APF Assay)
MPO chlorination activity was measured in 100 mM KPi (pH 7.4) by utilizing the non-fluorescent reagent Aminophenyl fluorescein (APF, Invitrogen catalog #A36003). APF is cleaved by (—OCl) to yield the fluorescent compound fluorescein. Reactions were carried out in 50 μL total volume by adding a 25 μL mixture of 200 pM myeloperoxidase and 120 mM NaCl to 100 nL inhibitor in 100% DMSO in a 384 well, non-binding surface clear bottom plate (CORNING® #3655). Enzyme, inhibitor, and chloride were preincubated for ten minutes at room temperature.
After the ten minute preincubation, 25 μL of an APF mixture containing […], 120 mM NaCl and 10 μM H2O2 was added to the plate using the internal dispensing system of a Hammatsu FDSS 6000. Kinetic determinations were carried out immediately on the FDSS 6000 (3 minute kinetic read, 1 read every second, ex: 485 nm, em: 535 nm). IC50 values for inhibitors were calculated by taking the slope of the linear portion of the kinetic measurement (20 seconds to ˜80-120 secs).
IC50 values were calculated by determining the slope of the linear portion of the kinetic trace ([…]), and using that calculated slope to determine % inhibition occurring at each concentration of inhibitor using the following equation:
(§1) [formula] where A=minimal Y value (activity level of inhibited sample), B=maximal Y value (activity level of uninhibited sample), C=Log IC50, D=Hill Slope, x=concentration of inhibitor. EPX Bromination Assay

[3] = molecular target: T2, EPX (eosinophil peroxidase) (Homo sapiens, UniProt P11678); assay: EPX bromination assay
T2 construct: purchased Lee Biosolutions 342-60
T2 sequence (P11678 140-715): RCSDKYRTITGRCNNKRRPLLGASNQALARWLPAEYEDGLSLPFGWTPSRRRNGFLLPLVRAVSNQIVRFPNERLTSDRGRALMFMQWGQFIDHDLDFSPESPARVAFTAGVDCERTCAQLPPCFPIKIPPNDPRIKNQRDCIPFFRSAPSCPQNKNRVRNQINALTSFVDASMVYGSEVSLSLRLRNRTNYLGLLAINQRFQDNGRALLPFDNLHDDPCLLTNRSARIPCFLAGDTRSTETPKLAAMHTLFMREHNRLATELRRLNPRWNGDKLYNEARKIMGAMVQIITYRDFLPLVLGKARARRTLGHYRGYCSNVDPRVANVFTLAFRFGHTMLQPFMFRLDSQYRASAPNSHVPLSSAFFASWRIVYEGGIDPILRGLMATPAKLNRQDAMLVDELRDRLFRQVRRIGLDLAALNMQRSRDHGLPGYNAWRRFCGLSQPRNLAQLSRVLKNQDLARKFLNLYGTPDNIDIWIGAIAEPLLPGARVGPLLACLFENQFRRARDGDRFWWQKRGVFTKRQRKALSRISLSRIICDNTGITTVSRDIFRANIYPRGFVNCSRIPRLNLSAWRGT
Description: as §1
EPX bromination activity was measured in 100 mM KPi (pH 7.4) by monitoring the H2O2 catalyzed formation of 3-bromo tyrosine from tyrosine and potassium bromide. A 50 μl mixture of 0.6 μM EPX (Lee Biosolutions Cat#342-60) was added to 100 nL inhibitor in 100% DMSO in a 384 well REMP plate. Enzyme and compound were preincubated for ten minutes at room temperature.
After the ten minute preincubation of enzyme and inhibitor, 25 μL of a mixture containing 400 μM tyrosine and 1200 μM potassium bromide was added to the plate containing enzyme and inhibitor, followed by the addition of 25 μl of 20 μM H2O2. The reaction was allowed to proceed for 15 minutes, at which time it was quenched with 10 μL of 20% TCA. The final concentrations of all components were 0.3 μM EPX, 100 μM tyrosine, […], 5 μM H2O2, 0.1% DMSO, 2.0% TCA.
IC50 values were determined by determining the peak areas of 3-bromotyrosine present at the end of the 15 minute reaction and fitting the data to:
[formula] where A=minimal Y value (activity level of inhibited sample), B=maximal Y value (activity level of uninhibited sample), C=Log IC50, D=Hill Slope, x=concentration of inhibitor.
Reversed-phase analysis was performed on a Waters Acquity Ultra Performance LC system using an Acquity UPLC BEH C18 […], 2.1×50 mm analytical column. The column was maintained at 60° C. Samples were eluted using a gradient of 0%-100% B over 2.5 minutes, followed by equilibration with 100% A for 1 minute where A consisted of 0.1% TFA and B consisted of 90% MeOH/0.1% TFA at a flow rate of 0.6 mL/min. The retention time of 3-bromo tyrosine was 1.22 min.

[4] = MPO peroxidation, potency range class, read-out: Amplex Red IC50
[5] = MPO chlorination, potency range class, read-out: APF IC50

| IC50 (myeloperoxidase (MPO) [1]; [4]) | IC50 (myeloperoxidase (MPO) [2]; [5]) | IC50 [3] | IC50 (myeloperoxidase (MPO) [1]) | IC50 (myeloperoxidase (MPO) [2]) | Structure (SMILES) |
| --- | --- | --- | --- | --- | --- |
| 0.001 to 0.1 µM | 0.001 to 0.1 µM |  |  |  | Nc1cc(OCc2cc(Br)ccc2F)c2nn[nH]c2n1 [Example 61, 7-(5-Bromo-2-fluorobenzyloxy)-3H-[1,2,3]triazolo[4,5-b]pyridin-5-amine] |
| 0.101 to 0.999 µM | 1 to 10 µM |  |  |  | Nc1cc(OCc2cc(C(=O)N3CCC(Cc4ccccc4)C3)ccc2Cl)c2nn[nH]c2n1 (stereo not shown) [Example 177, (3-((5-amino-3H-[1,2,3]triazolo [4,5-b]pyridin-7-yloxy)methyl)-4-chlorophenyl)(3-benzylpyrrolidin-1-yl)methanone] |
| 0.001 to 0.1 µM |  | 0.01 µM |  |  | Nc1cc(OCc2c(F)cccc2F)c2nn[nH]c2n1 [Example 54, 7-(2,6-Difluorobenzyloxy)-3H-[1,2,3]triazolo[4,5-b]pyridin-5-amine] |
| 0.001 to 0.1 µM | 0.101 to 0.999 µM |  |  |  | CS(=O)(=O)c1ccc(Cl)cc1COc1cc(N)nc2[nH]nnc12 [Example 50, 7-(5-Chloro-2-(methylsulfonyl)benzyloxy)-3H-[1,2,3]triazolo[4,5-b]pyridin-5-amine] |
| 0.001 to 0.1 µM | 0.001 to 0.1 µM |  |  |  | Nc1cc(OCc2c(F)cc(-c3ccc(N4CCNCC4)nc3)cc2F)c2nn[nH]c2n1 [Example 336, 7-((2,6-difluoro-4-(6-(piperazin-1-yl)pyridin-3-yl)benzyl)oxy)-3H-[1,2,3]triazolo[4,5-b] pyridin-5-amine] |
| 0.001 to 0.1 µM | 0.001 to 0.1 µM |  |  |  | Nc1cc(OCc2cc(Cl)ccc2OC(F)(F)F)c2nn[nH]c2n1 [Example 36, 7-(5-Chloro-2-(trifluoromethoxy)benzyloxy)-3H-[1,2,3]triazolo[4,5-b]pyridin-5-amine] |
| 0.001 to 0.1 µM | 0.101 to 0.999 µM |  |  |  | CC1CCCC(C)C1COc1cc(N)nc2[nH]nnc12 (stereo not shown) [Example 133, 7-((2,6-Dimethylcyclohexyl)methoxy)-3H-[1,2,3]triazolo[4,5-b]pyridin-5-amine] |
|  |  |  | 0.001 to 0.1 µM | 0.001 to 0.1 µM | Nc1cc(OCc2c(Cl)cccc2Cl)c2nn[nH]c2n1 [Example 234, 7-((2,6-Dichlorobenzyl)oxy)-3H-[1,2,3]triazolo[4,5-b]pyridin-5-amine] |
| 0.001 to 0.1 µM | 0.001 to 0.1 µM |  |  |  | COc1cc(Br)ccc1COc1cc(N)nc2[nH]nnc12 [Example 242, 7-((4-Bromo-2-methoxybenzyl)oxy)-3H-[1,2,3]triazolo[4,5-b]pyridin-5-amine] |
| 0.001 to 0.1 µM | 0.101 to 0.999 µM |  |  |  | Nc1cc(OCc2cc(Cl)ccc2OC2CCCC2)c2nn[nH]c2n1 [Example 43, 7-(5-Chloro-2-(cyclopentyloxy)benzyloxy)-3H-[1,2,3]triazolo[4,5-b]pyridin-5-amine] |
| 0.001 to 0.1 µM | 0.101 to 0.999 µM |  |  |  | COc1ncc(-c2cc(F)c(COc3cc(N)nc4[nH]nnc34)c(F)c2)cn1 [Example 334, 7-((2,6-difluoro-4-(2-methoxypyrimidin-5-yl)benzyl)oxy)-3H-[1,2,3]triazolo[4,5-b] pyridin-5-amine] |
| 0.001 to 0.1 µM | 0.001 to 0.1 µM |  |  |  | COc1ccc(Cl)cc1COc1cc(N)nc2[nH]nnc12 [Example 57, 7-(5-Chloro-2-methoxybenzyloxy)-3H-[1,2,3]triazolo[4,5-b]pyridin-5-amine] |
| 0.001 to 0.1 µM | 0.101 to 0.999 µM |  |  |  | CC(C)n1cc(-c2ccc(COc3cc(N)nc4[nH]nnc34)c(OC(F)(F)F)c2)cn1 [Example 305, 7-((4-(1-isopropyl-1H-pyrazol-4-yl)-2-(trifluoromethoxy)benzyl)oxy)-3H-[1,2,3] triazolo[4,5-b]pyridin-5-amine] |
| 0.001 to 0.1 µM | 1 to 10 µM |  |  |  | Nc1cc(OCc2ccc(-n3cc(C(F)(F)F)cn3)cc2OC(F)(F)F)c2nn[nH]c2n1 [Example 271, 7-((2-(trifluoromethoxy)-4-(4-(trifluoromethyl)-1H-pyrazol-1-yl)benzyl)oxy)-3H-[1,2,3]triazolo[4,5-b]pyridin-5-amine] |
| 0.001 to 0.1 µM | 0.101 to 0.999 µM |  |  |  | Nc1cc(OCc2cc(S(F)(F)(F)(F)F)ccc2F)c2nn[nH]c2n1 [Example 226, 7-(5-Pentafluorosulfanyl-2-fluorobenzyloxy)-3H-[1,2,3]triazolo[4,5-b]pyridin-5-amine] |
| 0.101 to 0.999 µM | 1 to 10 µM |  |  |  | Nc1cc(OCc2c(F)ccc(-c3cncc(C(=O)N4CCOCC4)c3)c2Cl)c2nn[nH]c2n1 [Example 345, (5-(3-(((5-amino-3H-[1,2,3]triazolo[4,5-b]pyridin-7-yl)oxy)methyl)-2-chloro-4-fluorophenyl)pyridin-3-yl)(morpholine) methanone] |
| 0.101 to 0.999 µM | 1 to 10 µM |  |  |  | Nc1cc(OCC2CCCc3ccccc32)c2nn[nH]c2n1 (stereo not shown) [Example 52, 7-((1,2,3,4-Tetrahydronaphthalen-1-yl)methoxy)-3H-[1,2,3]triazolo[4,5-b]pyridin-5-amine] |
| 1 to 10 µM | 1 to 10 µM |  |  |  | NC(=O)c1ccccc1COc1cc(N)nc2[nH]nnc12 [Example 254, 2-(((5-Amino-3H-[1,2,3]triazolo[4,5-b]pyridin-7-yl)oxy)methyl)benzamide] |
| 0.001 to 0.1 µM | 0.101 to 0.999 µM |  |  |  | CC(Oc1cc(N)nc2[nH]nnc12)c1cccc(F)c1 (stereo not shown) [Example 139, 7-(1-(3-Fluorophenyl)ethoxy)-3H-[1,2,3]triazolo[4,5-b]pyridin-5-amine] |
| 0.101 to 0.999 µM | 1 to 10 µM |  |  |  | Cc1nccn1-c1ccc(COc2cc(N)nc3[nH]nnc23)c(C#N)c1 [Example 277, 2-(((5-amino-3H-[1,2,3]triazolo[4,5-b]pyridin-7-yl)oxy)methyl)-5-(2-methyl-1H-imidazol-1-yl)benzonitrile] |
